Test results from the supplement of paper PMC11451515.

System: P12-Ichikawa
Assay: cell viability relative to DMSO control; higher = less cytotoxic
Conditions: 48 h
In short: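 NOMO1 or SEM cells were plated at 500 cells/well and P12-Ichikawa cells at 1000 cells/well in 1536-well plates (5 μl), after each leukemia line had been adapted for at least four passages in each medium. Pin dosing delivered library compounds in DMSO at 11 threefold concentrations, 47 μM to 0.79 nM. CellTiter-Glo One luminescence was read after 48 h at 37°C. Viability is reported as a per-plate percentage of DMSO wells, with cell-free wells as background.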

[1] = HPLM + 10% dialyzed FBS, 0.000781 µM
[2] = HPLM + 10% dialyzed FBS, 0.00234 µM
[3] = HPLM + 10% dialyzed FBS, 0.00702 µM
[4] = HPLM + 10% dialyzed FBS, 0.0211 µM
[5] = HPLM + 10% dialyzed FBS, 0.0632 µM
[6] = HPLM + 10% dialyzed FBS, 0.19 µM
[7] = HPLM + 10% dialyzed FBS, 0.569 µM
[8] = HPLM + 10% dialyzed FBS, 1.71 µM
[9] = HPLM + 10% dialyzed FBS, 5.12 µM
[10] = HPLM + 10% dialyzed FBS, 15.4 µM
[11] = HPLM + 10% dialyzed FBS, 46.1 µM
[12] = RPMI 5 mM glucose + 10% FBS, 0.000781 µM
[13] = RPMI 5 mM glucose + 10% FBS, 0.00234 µM
[14] = RPMI 5 mM glucose + 10% FBS, 0.00702 µM
[15] = RPMI 5 mM glucose + 10% FBS, 0.0211 µM
[16] = RPMI 5 mM glucose + 10% FBS, 0.0632 µM
[17] = RPMI 5 mM glucose + 10% FBS, 0.19 µM
[18] = RPMI 5 mM glucose + 10% FBS, 0.569 µM
[19] = RPMI 5 mM glucose + 10% FBS, 1.71 µM
[20] = RPMI 5 mM glucose + 10% FBS, 5.12 µM
[21] = RPMI 5 mM glucose + 10% FBS, 15.4 µM
[22] = RPMI 5 mM glucose + 10% FBS, 46.1 µM
[23] = RPMI 5 mM glucose + 10% dialyzed FBS, 0.000781 µM
[24] = RPMI 5 mM glucose + 10% dialyzed FBS, 0.00234 µM
[25] = RPMI 5 mM glucose + 10% dialyzed FBS, 0.00702 µM
[26] = RPMI 5 mM glucose + 10% dialyzed FBS, 0.0211 µM
[27] = RPMI 5 mM glucose + 10% dialyzed FBS, 0.0632 µM
[28] = RPMI 5 mM glucose + 10% dialyzed FBS, 0.19 µM
[29] = RPMI 5 mM glucose + 10% dialyzed FBS, 0.569 µM
[30] = RPMI 5 mM glucose + 10% dialyzed FBS, 1.71 µM
[31] = RPMI 5 mM glucose + 10% dialyzed FBS, 5.12 µM
[32] = RPMI 5 mM glucose + 10% dialyzed FBS, 15.4 µM
[33] = RPMI 5 mM glucose + 10% dialyzed FBS, 46.1 µM

| SMILES | cell viability [1] | cell viability [2] | cell viability [3] | cell viability [4] | cell viability [5] | cell viability [6] | cell viability [7] | cell viability [8] | cell viability [9] | cell viability [10] | cell viability [11] | cell viability [12] | cell viability [13] | cell viability [14] | cell viability [15] | cell viability [16] | cell viability [17] | cell viability [18] | cell viability [19] | cell viability [20] | cell viability [21] | cell viability [22] | cell viability [23] | cell viability [24] | cell viability [25] | cell viability [26] | cell viability [27] | cell viability [28] | cell viability [29] | cell viability [30] | cell viability [31] | cell viability [32] | cell viability [33] |
| --- | --- | --- | --- | --- | --- | --- | --- | --- | --- | --- | --- | --- | --- | --- | --- | --- | --- | --- | --- | --- | --- | --- | --- | --- | --- | --- | --- | --- | --- | --- | --- | --- | --- |
| CCCC[N+]1(C)[C@@H]2CC(OC(=O)[C@H](CO)c3ccccc3)C[C@H]1[C@@H]1O[C@@H]12 (stereo partly drawn) | 114% | 121% | 123% | 118% | 116% | 128% | 118% | 95.2% | 104% | 103% | 110% |  |  |  |  |  |  |  |  |  |  |  |  |  |  |  |  |  |  |  |  |  |  |
| CNC(=O)c1ccccc1Sc1ccc2c(/C=C/c3ccccn3)n[nH]c2c1 | 116% | 111% | 107% | 115% | 112% | 109% | 106% | 84.5% | 77.8% | 17.9% | 14% | 117% | 116% | 126% | 116% | 110% | 97.2% | 108% | 87% | 78.9% | 28% | 21.6% |  |  |  |  |  |  |  |  |  |  |  |
| Cc1cc(-c2ccc(CC(=O)Nc3ccc(-c4cccnc4)cc3)cc2)ccn1 | 113% | 113% | 121% | 115% | 118% | 111% | 112% | 108% | 97.7% | 57.1% | 70.2% | 117% | 119% | 121% | 117% | 118% | 132% | 111% | 106% | 111% | 89.9% | 62.6% | 112% | 110% | 111% | 114% | 119% | 108% | 104% | 106% | 96.3% | 69.1% | 55.7% |
| CC1CCN(c2cc(N3CCN(C)CC3)ccc2NC(=O)c2cc(C#N)c[nH]2)CC1 |  |  |  |  |  |  |  |  |  |  |  |  |  |  |  |  |  |  |  |  |  |  | 124% | 119% | 122% | 126% | 133% | 119% | 115% | 121% | 106% | 106% | 99.9% |
| COc1ccc2c(c1)CC[C@@H](CN(C)CC(=O)O)[C@H]2c1ccccc1 |  |  |  |  |  |  |  |  |  |  |  |  |  |  |  |  |  |  |  |  |  |  | 116% | 122% | 129% | 119% | 119% | 116% | 119% | 105% | 54.9% | 28.8% | 29.1% |
| CC(C)C1=N[N](C\2=C1C(=O)N\C(=N2)CC3=CC=C(OCCO)C=C3)C4=C(Cl)C=CC=C4Cl | 116% | 116% | 109% | 108% | 107% | 44% | 10.7% | 5.9% | 6.83% | 6.62% | 5.21% |  |  |  |  |  |  |  |  |  |  |  | 118% | 129% | 117% | 124% | 127% | 31.8% | 10.9% | 5.95% | 6.23% | 6.55% | 3.77% |
| CCCCc1ccc(N[S+](=O)([O-])c2ccc(C)c(C(=O)N3CCN(c4cccc(C)c4C)CC3)c2)cc1 | 125% | 125% | 122% | 96.6% | 118% | 125% | 121% | 122% | 120% | 105% | 106% |  |  |  |  |  |  |  |  |  |  |  |  |  |  |  |  |  |  |  |  |  |  |
| CCCCc1oc2ccccc2c1C(=O)c1cc(I)c(OCCN(CC)CC)c(I)c1 | 114% | 114% | 113% | 109% | 115% | 102% | 110% | 104% | 104% | 104% | 91.1% |  |  |  |  |  |  |  |  |  |  |  | 106% | 114% | 115% | 114% | 111% | 107% | 116% | 106% | 103% | 103% | 94.5% |
| Cc1n[nH]c(C)c1Cc1sc2c(c1C(=O)N1C[C@H](O)CO1)c(=O)n(C)c(=O)n2CC(C)C | 116% | 117% | 119% | 121% | 109% | 98.8% | 93.4% | 92.6% | 94.3% | 91.4% | 83.4% | 117% | 118% | 131% | 120% | 109% | 107% | 95.6% | 95.8% | 84.3% | 89.9% | 83.8% | 113% | 118% | 114% | 114% | 107% | 98.2% | 91.6% | 92% | 94% | 88.5% | 83.7% |
| Cc1n[nH]c2ccc(-c3cncc(OC[C@@H](N)Cc4c[nH]c5ccccc45)c3)cc12 |  |  |  |  |  |  |  |  |  |  |  | 108% | 114% | 100% | 98.9% | 88.5% | 70.2% | 80.3% | 35.5% | 17.8% | 2.32% | 1.05% | 107% | 119% | 105% | 108% | 96.9% | 74.8% | 64% | 38.5% | 27.1% | 2.44% | 1.33% |
